# Results: PubChem BioAssay (NCI)
# Where “and” joins values, the source holds several entries; their conditions need not be identical. Equal values may be shown once.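 96-well plates; 48 h exposure; 5 concentrations. Endpoints by linear interpolation between flanking doses. Not reached: highest tested concentration assigned. GI50: concentration for 50% inhibition of growth. TGI denotes the concentration required for complete inhibition of growth.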
# Key:
# Assay in all cases: DTP human tumour cell line panel, 48 h
# UACC-62 melanoma = system: UACC-62 melanoma
# CCRF-CEM leukemia = system: CCRF-CEM leukemia
# SK-MEL-5 melanoma = system: SK-MEL-5 melanoma
# SR leukemia = system: SR leukemia
# SNB-75 CNS = system: SNB-75 CNS
# HCT-116 colon = system: HCT-116 colon
# HL-60(TB) leukemia = system: HL-60(TB) leukemia
# SF-295 CNS = system: SF-295 CNS
# SK-OV-3 ovarian = system: SK-OV-3 ovarian
# RPMI-8226 leukemia = system: RPMI-8226 leukemia
SMILES,GI50 (UACC-62 melanoma) [µM],TGI (UACC-62 melanoma),GI50 (CCRF-CEM leukemia) [µM],TGI (CCRF-CEM leukemia),GI50 (SK-MEL-5 melanoma) [µM],TGI (SK-MEL-5 melanoma) [µM],GI50 (SR leukemia) [µM],TGI (SR leukemia),GI50 (SNB-75 CNS) [µM],TGI (SNB-75 CNS),GI50 (HCT-116 colon) [µM],TGI (HCT-116 colon),GI50 (HL-60(TB) leukemia) [µM],TGI (HL-60(TB) leukemia),GI50 (SF-295 CNS) [µM],TGI (SF-295 CNS) [µM],GI50 (SK-OV-3 ovarian) [µM],TGI (SK-OV-3 ovarian) [µM],GI50 (RPMI-8226 leukemia) [µM],TGI (RPMI-8226 leukemia) [µM]
CCCC(=O)NNc1[nH]c(-c2ccc(OC)cc2)cc1C(=O)OCC,16.4,30 µM,2.82,> 100 µM,18.5,33.2,28.3,> 100 µM,15.4,29.4 µM,37.2,> 100 µM,3.1,93.2 µM,38,> 100,> 100,> 100,16.8,86.2
Cc1ccc(NC(=O)c2ccnc(N3CCCC3)c2)cc1-c1ccc(C(=O)NCC2CC2)cc1,> 25,> 25 µM,> 25,> 25 µM,> 25,> 25,13,> 25 µM,> 21.7,> 25 µM,> 23.8,> 25 µM,> 25,> 25 µM,> 25,> 25,> 25,> 25,> 25,> 25
COc1cc(C(=O)n2nc(N3CCN(C)CC3)c3cc(N)ccc32)cc(OC)c1OC,2.78,17.7 µM,3.78,> 100 µM,3.03,9.06,3.64,53.3 µM,4.39,> 100 µM,3.84,> 100 µM,2.16,5.14 µM,3.54,18.2,4.26,93.2,4.79,34.8
CC/C(=C(\CC)c1ccc(OCCN(CC)CC)cc1)c1ccc(OCCN(CC)CC)cc1,1.92,4.29 µM,2.51,25 µM,1.48,2.86,1.38,6.55 µM,2.83,11 µM,1.03,6.25 µM,3.8,9.84 µM,1.37,3.91,3.48,12,1.42,4.63
Cn1cc(C2=C(c3c4n(c5ccccc35)CCC(CN)CC4)C(=O)NC2=O)c2ccccc21 (stereo not given),3.65,7.28 µM,5.19,15.6 µM,3.99,7.59,5.14,16.2 µM,1.09,4.9 µM,3.51,7.26 µM,5.22,11.5 µM,4.01,8.02,4.99,11.6,4.41,10.8
O=C(O)CC1(C(=O)O)CCCCC1,,> 100 µM,,> 100 µM,,> 100,,> 100 µM,,> 100 µM,,> 100 µM,,> 100 µM,,> 100,,> 100,,> 100
COc1ccc(F)cc1C(=O)c1cnc(NC2CCN(S(C)(=O)=O)CC2)nc1N,2.75,8.95 µM,2.63,> 21.3 µM,3.12,> 21.4,0.885,> 14.8 µM,3.97,10.2 µM,1.21,> 25 µM,1.66,18.1 µM,1.68,> 15.5,8.82,> 25,3.27,13.1
CCCCCCCCCCCC(=O)OCC1OC(n2cc(F)c(=O)[nH]c2=O)C(N)C(O)C1O (stereo not given),,> 100 µM,,> 100 µM,,> 100,,> 100 µM,,> 100 µM,,> 100 µM,,> 100 µM,,> 100,,> 100,,> 100
CN(CCO)c1nc2c(c(=O)[nH]1)CNCC2,,> 100 µM,,> 100 µM,,> 100,,> 100 µM,,> 100 µM,,> 100 µM,,> 100 µM,,> 100,,> 100,,> 100
CO[C@H](C(=O)N[C@@H](CCCCNC(=O)OCc1ccccc1)C(=O)OC(C)(C)C)[C@@H]1Cc2cc3cc(OC4CC(OC5CC(O)C(O)C(C)O5)C(O)C(C)O4)c(C)c(O)c3c(O)c2C(=O)[C@H]1OC1CC(OC2CC(OC3CC(C)(O)C(O)C(C)O3)C(O)C(C)O2)C(O)C(C)O1 (stereo not given in full),0.369,1.7 µM,0.404,5.07 µM,0.432,1.59,0.319,> 10 µM,0.541,1.97 µM,0.397,1.63 µM,0.971,5.92 µM,0.468,1.72,1.02,2.81,0.487,3.65
COC(=O)/C(=C/CC(N=C(c1ccccc1)c1ccccc1)C(=O)OC)N=C(c1ccccc1)c1ccccc1 (stereo not given),,> 100 µM,,> 100 µM,,> 100,,> 100 µM,,83.9 µM,,> 100 µM,,> 100 µM,,> 100,,> 100,,> 100
CN(C)CC1CCn2c(c(C3=C(c4cn(C)c5ccccc45)C(=O)NC3=O)c3ccccc32)C1 (stereo not given),3.91,7.49 µM,6.41,24.2 µM,3.9,7.49,4.26,12.7 µM,0.772,5.28 µM,3.24,6.75 µM,5.87,11.2 µM,4.46,9.06,4.62,10.5,4.89,11
COc1ccccc1NC(=O)C1=C(C)NC(C)=C(C(=O)Nc2ccccc2OC)C1c1ccccc1OC,,> 100 µM,,> 100 µM,,> 100,,> 100 µM,,69 µM,,> 100 µM,,> 100 µM,,> 100,,> 100,,> 100
Cn1cnc2c(NCc3ccccc3)nc(NCCO)nc21,67.5,> 89.9 µM and 302 µM,143,98.2 µM and 353 µM,96.4,220,69.1,> 87 µM and 237 µM,64.7,70.8 µM and 150 µM,49.3,> 96.5 µM and 321 µM,73.2,> 73 µM and 220 µM,122,> 500,241,> 460,81.2,> 339
